Counter-ions that a name gives are not always drawn.
Test system: mice (hypoxic environment)
Experiment: Hypoxic survival test
Type: in vivo, mouse (Royal Hart)
Conditions: intraperitoneal, 10% oxygen, 5 minutes; for responders at 200 mg/kg / responders at 100 mg/kg / responders at 10 mg/kg: Mus musculus, ip, 5 min, read-out: % Survivors
Description: The hypoxic survival test is a useful in vivo test for measuring the effectiveness of central nervous system-acting drugs in enhancing survival in an hypoxic environment relative to the known parasympathomimetic agent physostigmine.
Drugs are tested by intraperitoneal injection of groups of mice 30 minutes prior to placing them in an hypoxic environment and measuring survival. The rationale of this test is that drugs which enhance survival under hypoxic conditions without concomitant depression or sedative side effects, do so by enhancing brain metabolism, i.e., by improving energy supply relative to demand and so preserving normal brain function under conditions of reduced energy metabolism. Considering the dependence of the brain on a constant supply of energy, drugs which have this property may have many far-reaching therapeutic indications, including aiding recovery from stroke and closed head injury and reducing the deleterious effects of age-related central nervous system deficits.
In the hypoxic survival test, groups of 20 Royal Hart mice (6 weeks of age) were injected intraperitoneally with a test compound in saline at various doses ranging from 1 to 200 mg/kg, 30 minutes prior to placing them in an hypoxic mixture (10% oxygen, 90% […]) and measuring survival after 5 minutes.
A control group of 20 mice was injected intraperitoneally with saline (0.01 ml/g of body weight) and processed as described above.
Another group of 20 mice was injected intraperitoneally with 0.125 mg/kg of physostigmine in saline and processed as described above.

Work on `CCC1=C(c2cccc(C(F)(F)F)c2)n2ncc(C#N)c2N(C(=O)CN2CCN(Cc3ccccc3)CC2)C1` [Example 140, 4,5-Dihydro-6-ethyl-4[[4-(phenylmethyl)-1-piperazinyl]acetyl]7-[3-(trifluoromethyl)phenyl]pyrazolo[1,5-a]pyrimidine-3-carbonitrile] yielded a responders at 200 mg/kg of 42%.
`CC1=C(c2ccc(Cl)cc2)n2ncc(C#N)c2N(C(=O)CN2CCN(Cc3cccc(C(F)(F)F)c3)CC2)C1` [Example 142, 7-(4-Chlorophenyl)-4,5-dihydro-6-methyl-4-[[4-[[3-(trifluoromethyl)phenyl]methyl-1-piperazinyl]acetyl]pyrazolo[1,5-a]pyrimidine-3-carbonitrile, dihydrochloride] showed a responders at 200 mg/kg of 37.5%.
`COc1cccc(CN2CCN(CC(=O)N3CC(C)=C(c4cccc(Cl)c4)n4ncc(C#N)c43)CC2)c1` [Example 143, 7-(3-Chlorophenyl)-4,5-dihydro-4-[[4-[(3-methoxyphenyl)methyl]-1-piperazinyl]acetyl]-6-methylpyrazolo[1,5-a]pyrimidine-3-carbonitrile, dihydrochloride] was tested, and the responders at 100 mg/kg (100 mg/kg) was 65%.
With `N#Cc1cnn2c1N(C(=O)CN1CCN(Cc3cccc(C(F)(F)F)c3)CC1)CC=C2c1cccc(C(F)(F)F)c1` [Example 145, 4,5-Dihydro-7-[3-(trifluoromethyl)phenyl-4-[[4-[[3-(trifluoromethyl)phenyl]methyl]-1-piperazinyl]acetyl]pyrazolo[1,5-a]pyrimidine-3-carbonitrile, dihydrochloride] the “% Survivors” value (100 mg/kg, listed as 4,5-Dihydro-4-[[4-[(3-trifluoromethyl-phenyl)methyl]-1-piperazinyl]acetyl]-7-[3-, dihydrochloride) was 85%.
For `COc1cccc(CN2CCN(CC(=O)N3CC=C(c4ccccc4)n4ncc(C#N)c43)CC2)c1` [Example 148, 4,5-Dihydro-4-[[4-[(3-methoxyphenyl)methyl]-1-piperazinyl]acetyl]-7-phenylpyrazolo[1,5-a]pyrimidine-3-carbonitrile], the responders at 100 mg/kg (100 mg/kg) was 55%.
In the case of `Cc1cccc(C2=CCN(C(=O)CN3CCN(Cc4ccccc4)CC3)c3c(C#N)cnn32)c1` [Example 149, 4,5-Dihydro-7-(3-methylphenyl)-4-[[4-(phenylmethyl)-1-piperazinyl]acetyl]pyrazolo[1,5-a]pyrimidine-3-carbonitrile, hydrochloride], the responders at 100 mg/kg (100 mg/kg) was 55%.
`COc1cccc(CN2CCN(CC(=O)N3CC=C(c4ccccc4)n4ncc(C#N)c43)CC2)c1` [Example 150, 4,5-Dihydro-4-[[4-[(3-methoxyphenyl)methyl]-1-piperazinyl]acetyl]-7-phenylpyrazolo[1,5-a]pyrimidine-3-carbonitrile, dihydrochloride] gave a responders at 10 mg/kg of 45%.
With `N#Cc1cnn2c1N(C(=O)CN1CCN(Cc3ccccc3C(F)(F)F)CC1)CC=C2c1cccc(C(F)(F)F)c1` [Example 151, 4,5-Dihydro-7-[3-(trifluoromethyl)phenyl]-4-[[4-[[2-(trifluoromethyl)phenyl]methyl]-1-piperazinyl]acetyl]pyrazolo[1,5-a]pyrimidine-3-carbonitrile] the responders at 100 mg/kg (100 mg/kg) was 20%.
`N#Cc1cnn2c1N(C(=O)CN1CCN(Cc3ccccc3C(F)(F)F)CC1)CC=C2c1cccc(C(F)(F)F)c1` [Example 152, 4,5-Dihydro-7-[3-(trifluoromethyl)phenyl]-4-[[4-[[2-(trifluoromethyl)phenyl]methyl]-1-piperazinyl]acetyl]pyrazolo[1,5-]pyrimidine-3-carbonitrile dihydrochloride] was tested, and the responders at 10 mg/kg was 30%.
`N#Cc1cnn2c1N(C(=O)CN1CCN(c3ccc(F)cc3)CC1)CC=C2c1cccc(C(F)(F)F)c1` [Example 153, 4-[[4-(4-Fluorophenyl)-1-piperazinyl]acetyl]4,5-dihydro-7-[3-(trifluoromethyl)phenyl]pyrazolo[1,5-a]pyrimidine-3-carbonitrile, monohydrochloride] gave a responders at 100 mg/kg (100 mg/kg) of 35%.
`O=C(CN1CCN(Cc2ccccc2)CC1)N1CC=C(c2cccc(C(F)(F)F)c2)n2ncc(Br)c21` [Example 154, 3-Bromo-4,5-dihydro-4-[[4-(phenylmethyl)-1-piperazinyl]acetyl]-7-[3-(trifluoromethyl)phenyl]pyrazolo[1,5-a]pyrimidine, dihydrochloride] showed a responders at 10 mg/kg of 20%.

Source: patent US4963553A, “4-[(substituted) alkylcarbonyl]-4,5-dihydro- and -4,5,6,7-tetrahydro-7-[(substituted)phenyl]pyrazolo[1,5-a]pyrimidines” (American Cyanamid Co., priority 1988, dated 1990)
